From patent US11000033B2, “Ketone or oxime compound, and herbicide” (NISSAN CHEMICAL CORPORATION, priority 2014, dated 2021)

What was measured:
Type in all cases: in vivo
soybean = assay: Test Example 5: effect on crop by foliage application, plastic box (symbol d); conditions: 320 g/ha, 3 weeks after application
Method in brief: (§1)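 Seeds were sown in spots in sterilized diluvial soil held in a plastic box 21 cm × 13 cm × 7 cm deep, covered with about 1.5 cm of soil, and grown in a greenhouse at 25° C. to 30° C.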

[1] = test system: directly sowed rice plant; assay: Test Example 3: effect on crop by foliage application, Wagner pot (symbol b); conditions: application herbicide amount 320 g/ha; for b (directly sowed rice plant) effect on crop grade: Table 24
Method in brief: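 Plants are raised from seed in flooded paddy conditions: water stands 0.1–0.5 cm over alluvial soil, and the pot is kept in a greenhouse at 25–30 °C. Species sown are barnyardgrass (E. crus-galli var. crus-galli), Leptochloa chinensis, Cyperus difformis and rice.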

Monochoria vaginalis = assay: Test Example 1: herbicidal activity, application before weed generation in submerged conditions (symbol C); conditions: application herbicide amount 320 g/ha
Method in brief: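 Greenhouse growth at 25–30 °C lasted 3 weeks after treatment, when each weed was graded 0–5 by herbicidal ratio. Treatment was a diluted emulsion applied to the water surface of 4 cm-submerged alluvial soil on the sowing day.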

Leptochloa chinensis = assay: Test Example 3: herbicidal effect by foliage application, Wagner pot (symbol D); conditions: application herbicide amount 320 g/ha; for D (Leptochloa chinensis) herbicidal effect grade: Table 24
Method in brief: (§2)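 Weeds and rice were sown in alluvial soil under 0.1–0.5 cm of standing water and grown for 14 days in a 25–30 °C greenhouse. An emulsion of the compound, diluted in water to a set dose, was sprayed evenly onto the foliage. Effect was scored against fixed criteria 3 weeks after treatment.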

beet = assay: Test Example 4: effect on crop by soil treatment (symbol f); conditions: for Effect on crop grade, f: beet: application herbicide amount 320 g/ha; for f: beet, effect grade on crop: 320 g/ha
Source text: (§3) Herbicidal Effect Test by Soil Treatment
Sterilized diluvial soil was placed in a plastic box having a length of 21 cm, a width of 13 cm, and a depth of 7 cm. Each of the seeds of Digitaria ciliaris, Setaria viridis, Echinochloa crus-galli var. crus-galli, Avena fatua, Alopecurus myosuroides, Lolium multiflorum Lam., Apera spica-venti, Abutilon theophrasti, Amaranthus retroflexus, Chenopodium album, Stellaria media, Galium spurium, Veronica persica, corn, soybean, rice, wheat, beet, and rapeseed was sowed in a spot-like manner and was covered with the soil of a thickness of about 1.5 cm. […] The plastic box was placed in a greenhouse of 25° C. to 30° C. to grow plant.

[2] = test system: Echinochloa crus-galli var. crus-galli; assay: Test Example 3: herbicidal effect by foliage application, Wagner pot (symbol H); conditions: application herbicide amount 320 g/ha; for H (Echinochloa crus-galli var. crus-galli) herbicidal effect grade: Table 24
Method in brief: as §2

transplanted rice plant = assay: Test Example 1: effect on crop, application before weed generation in submerged conditions (symbol a); conditions: application herbicide amount 320 g/ha
Method in brief: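 Rice at 2.5 leaf stage transplanted into submerged soil (4 cm depth) sown with three weed species; herbicide applied before weed emergence.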

[3] = test system: Echinochloa oryzacola Vasing.; assay: Test Example 2: herbicidal activity, application during weed generation in submerged conditions (symbol A); conditions: Table 23; application herbicide amount 320 g/ha; grade 0-5 by criteria of Test Example 1
Method in brief: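 Alluvial soil in pots was flooded to a 4 cm water depth and sown with a mix of the three weed species, then grown in a greenhouse at 25° C. to 30° C. At the one- to two-leaf stage, an emulsifiable formulation diluted in water to a set dose was applied to the water surface. Effects were scored visually 3 weeks later.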

Digitaria ciliaris = assay: Test Example 4: herbicidal effect by soil treatment (symbol F); conditions: for F: Digitaria ciliaris, herbicidal effect grade: 320 g/ha
Source text: as §3
(§4) Sterilized diluvial soil was placed in a plastic box having a length of 21 cm, a width of 13 cm, and a depth of 7 cm. Each of the seeds of Digitaria ciliaris, Setaria viridis, Echinochloa crus-galli var. crus-galli, Avena fatua, Alopecurus myosuroides, Lolium multiflorum Lam., Apera spica-venti, Abutilon theophrasti, Amaranthus retroflexus, Chenopodium album, Stellaria media, Galium spurium, Veronica persica, corn, soybean, rice, wheat, beet, and rapeseed was sowed in a spot-like manner and was covered with the soil of a thickness of about 1.5 cm. Subsequently, the emulsion agent of the compound present invention prepared in accordance with Formulation Example 2 was diluted with water so as to be a predetermined herbicide amount and the diluted emulsion agent was uniformly applied to the surface of the soil with a small-size spray. The plastic box was placed in a greenhouse of 25° C. to 30° C. to grow plant. 3 weeks later from the herbicide application, the effect to each plant was investigated in accordance with the criteria of Test Example 1.

corn = assay: Test Example 5: effect on crop by foliage application, plastic box (symbol c); conditions: 320 g/ha, 3 weeks after application
Method in brief: as §1

Lolium multiflorum Lam. = assay: Test Example 4: herbicidal effect by soil treatment (symbol K); conditions: for K: Lolium multiflorum Lam., herbicidal effect grade: 320 g/ha
Source text: as §3, §4

[4] = application herbicide amount 320 g/ha

SMILES | d: soybean, effect on crop grade (soybean) | b (directly sowed rice plant) effect on crop grade [1] | C (Monochoria vaginalis) herbicidal effect grade (Monochoria vaginalis) | D (Leptochloa chinensis) herbicidal effect grade (Leptochloa chinensis) | Effect on crop grade, f: beet (beet) | H (Echinochloa crus-galli var. crus-galli) herbicidal effect grade [2] | a (transplanted rice plant) effect on crop grade (transplanted rice plant) | Herbicidal effect grade, A: Echinochloa oryzacola Vasing. [3] | Herbicidal effect grade, F: Digitaria ciliaris (Digitaria ciliaris; [4]) | c: corn, effect on crop grade (corn) | Herbicidal effect grade, K: Lolium multiflorum Lam. (Lolium multiflorum Lam.; [4]) | effect on crop b (directly sowed rice plant), grade 0-5 [1] | herbicidal effect on D (Leptochloa chinensis), grade 0-5 (Leptochloa chinensis) | herbicidal effect on H (Echinochloa crus-galli var. crus-galli), grade 0-5 [2] | Effect grade on crop, a: transplanted rice plant (transplanted rice plant) | other results
COCCON=C(C)CC1CC(O)=C(c2c(C)cc(Br)cc2C)C1=O (stereo not drawn) [9-017] | 0 (Herbicidal ratio of 5% or lower (almost no effect)) | 5 (Herbicidal ratio of 90% or more (almost completely withered)) | 0 (Herbicidal ratio of 5% or lower (almost no effect)) | 5 (Herbicidal ratio of 90% or more (almost completely withered)) | 0 (Herbicidal ratio of 5% or lower (almost no effect)) | 5 (Herbicidal ratio of 90% or more (almost completely withered)) | 4 (Herbicidal ratio of 70% or higher and lower than 90%) | 1 (Herbicidal ratio of 5% or higher and lower than 20%) | 4 (Herbicidal ratio of 70% or higher and lower than 90%) | 5 (Herbicidal ratio of 90% or more (almost completely withered)) | 0 (Herbicidal ratio of 5% or lower (almost no effect)) |  |  |  |  | 
COCCON=C(C)CC1CC(O)=C(c2c(C)cc(-n3cc(Cl)cn3)cc2C)C1=O (stereo not drawn) [9-016] | 3 (Herbicidal ratio of 40% or higher and lower than 70%) | 5 (Herbicidal ratio of 90% or more (almost completely withered)) | 2 (Herbicidal ratio of 20% or higher and lower than 40%) | 5 (Herbicidal ratio of 90% or more (almost completely withered)) | 0 (Herbicidal ratio of 5% or lower (almost no effect)) | 5 (Herbicidal ratio of 90% or more (almost completely withered)) | 5 (Herbicidal ratio of 90% or more (almost completely withered)) | 5 (Herbicidal ratio of 90% or more (almost completely withered)) | 5 (Herbicidal ratio of 90% or more (almost completely withered)) | 5 (Herbicidal ratio of 90% or more (almost completely withered)) | 5 (Herbicidal ratio of 90% or more (almost completely withered)) |  |  |  |  | 
COCCON=C(CC1CC(O)=C(c2c(C)cc(Br)cc2C)C1=O)C1CC1 (stereo not drawn) [9-019] | 0 (Herbicidal ratio of 5% or lower (almost no effect)) | 5 (Herbicidal ratio of 90% or more (almost completely withered)) | 0 (Herbicidal ratio of 5% or lower (almost no effect)) | 5 (Herbicidal ratio of 90% or more (almost completely withered)) | 0 (Herbicidal ratio of 5% or lower (almost no effect)) | 5 (Herbicidal ratio of 90% or more (almost completely withered)) | 4 (Herbicidal ratio of 70% or higher and lower than 90%) | 3 (Herbicidal ratio of 40% or higher and lower than 70%) | 0 (Herbicidal ratio of 5% or lower (almost no effect)) | 5 (Herbicidal ratio of 90% or more (almost completely withered)) | 3 (Herbicidal ratio of 40% or higher and lower than 70%) |  |  |  |  | 
CCCCCCCCS(=O)(=O)OC1=C(c2c(C)cc(C)cc2C)C(=O)C(CC(C)=NOC)C1 (stereo not drawn) [1-107] |  |  |  |  |  |  |  | 5 (Herbicidal ratio of 90% or more (almost completely withered)) |  |  |  | 5 (Herbicidal ratio of 90% or more (almost completely withered)) | 5 (Herbicidal ratio of 90% or more (almost completely withered)) | 5 (Herbicidal ratio of 90% or more (almost completely withered)) | 3 (Herbicidal ratio of 40% or higher and lower than 70%) | d: soybean, effect on crop (criteria 0-5) (soybean): 3 (Herbicidal ratio of 40% or higher and lower than 70%); Herbicidal effect grade, C: Monochoria vaginalis (Monochoria vaginalis): 1 (Herbicidal ratio of 5% or higher and lower than 20%); f: beet, effect grade on crop (beet): 0 (Herbicidal ratio of 5% or lower (almost no effect)); F: Digitaria ciliaris, herbicidal effect grade (Digitaria ciliaris): 5 (Herbicidal ratio of 90% or more (almost completely withered)); c: corn, effect on crop (criteria 0-5) (corn): 2 (Herbicidal ratio of 20% or higher and lower than 40%); K: Lolium multiflorum Lam., herbicidal effect grade (Lolium multiflorum Lam.): 5 (Herbicidal ratio of 90% or more (almost completely withered))
Cc1cc(Br)cc(C)c1C1=C(O)CC(CC(=NOCC(F)(F)F)C2CC2)C1=O (stereo not drawn) [9-009] | 0 (Herbicidal ratio of 5% or lower (almost no effect)) | 5 (Herbicidal ratio of 90% or more (almost completely withered)) | 0 (Herbicidal ratio of 5% or lower (almost no effect)) | 5 (Herbicidal ratio of 90% or more (almost completely withered)) | 0 (Herbicidal ratio of 5% or lower (almost no effect)) | 5 (Herbicidal ratio of 90% or more (almost completely withered)) | 5 (Herbicidal ratio of 90% or more (almost completely withered)) | 2 (Herbicidal ratio of 20% or higher and lower than 40%) | 5 (Herbicidal ratio of 90% or more (almost completely withered)) | 3 (Herbicidal ratio of 40% or higher and lower than 70%) | 5 (Herbicidal ratio of 90% or more (almost completely withered)) |  |  |  |  | 
C=CCOC1=C(c2c(C)cc(C)cc2C)C(=O)C(CC(C)=NOC)C1 (stereo not drawn) [1-007] | 0 (Herbicidal ratio of 5% or lower (almost no effect)) |  |  |  |  |  |  | 0 (Herbicidal ratio of 5% or lower (almost no effect)) |  | 0 (Herbicidal ratio of 5% or lower (almost no effect)) |  | 0 (Herbicidal ratio of 5% or lower (almost no effect)) | 5 (Herbicidal ratio of 90% or more (almost completely withered)) | 0 (Herbicidal ratio of 5% or lower (almost no effect)) | 0 (Herbicidal ratio of 5% or lower (almost no effect)) | Herbicidal effect grade, C: Monochoria vaginalis (Monochoria vaginalis): 0 (Herbicidal ratio of 5% or lower (almost no effect)); F (Digitaria ciliaris) herbicidal effect grade (Digitaria ciliaris; [4]): 0 (Herbicidal ratio of 5% or lower (almost no effect)); K (Lolium multiflorum Lam.) herbicidal effect grade (Lolium multiflorum Lam.; [4]): 2 (Herbicidal ratio of 20% or higher and lower than 40%)
CC(CC1CC(O)=C(c2c(C)cc(C)cc2C)C1=O)=NOCC#N (stereo not drawn) [1-102] |  |  |  |  |  |  |  | 5 (Herbicidal ratio of 90% or more (almost completely withered)) |  |  |  | 5 (Herbicidal ratio of 90% or more (almost completely withered)) | 5 (Herbicidal ratio of 90% or more (almost completely withered)) | 5 (Herbicidal ratio of 90% or more (almost completely withered)) | 5 (Herbicidal ratio of 90% or more (almost completely withered)) | d: soybean, effect on crop (criteria 0-5) (soybean): 0 (Herbicidal ratio of 5% or lower (almost no effect)); f: beet, effect grade on crop (beet): 0 (Herbicidal ratio of 5% or lower (almost no effect)); F: Digitaria ciliaris, herbicidal effect grade (Digitaria ciliaris): 4 (Herbicidal ratio of 70% or higher and lower than 90%); c: corn, effect on crop (criteria 0-5) (corn): 5 (Herbicidal ratio of 90% or more (almost completely withered)); K: Lolium multiflorum Lam., herbicidal effect grade (Lolium multiflorum Lam.): 5 (Herbicidal ratio of 90% or more (almost completely withered))
